The record followed here is patent US20250074892A1, “CARBONYL BRIDGED HETEROCYCLIC COMPOUND, AND COMPOSITION AND APPLICATION THEREOF” (BEIJING SCITECH-MQ PHARMACEUTICALS LIMITED, priority 2022, published 2025).

The structures appear in SMILES notation.

The assay addresses T1, RIPK1 (Homo sapiens, UniProt Q13546).
T1 construct: intracellular RIPK1 and its phosphorylation during the process of inducing programmed necrosis of HT29 cells; endogenous in cells; host or cells: HT29 cells
T1 sequence (Q13546 1-671): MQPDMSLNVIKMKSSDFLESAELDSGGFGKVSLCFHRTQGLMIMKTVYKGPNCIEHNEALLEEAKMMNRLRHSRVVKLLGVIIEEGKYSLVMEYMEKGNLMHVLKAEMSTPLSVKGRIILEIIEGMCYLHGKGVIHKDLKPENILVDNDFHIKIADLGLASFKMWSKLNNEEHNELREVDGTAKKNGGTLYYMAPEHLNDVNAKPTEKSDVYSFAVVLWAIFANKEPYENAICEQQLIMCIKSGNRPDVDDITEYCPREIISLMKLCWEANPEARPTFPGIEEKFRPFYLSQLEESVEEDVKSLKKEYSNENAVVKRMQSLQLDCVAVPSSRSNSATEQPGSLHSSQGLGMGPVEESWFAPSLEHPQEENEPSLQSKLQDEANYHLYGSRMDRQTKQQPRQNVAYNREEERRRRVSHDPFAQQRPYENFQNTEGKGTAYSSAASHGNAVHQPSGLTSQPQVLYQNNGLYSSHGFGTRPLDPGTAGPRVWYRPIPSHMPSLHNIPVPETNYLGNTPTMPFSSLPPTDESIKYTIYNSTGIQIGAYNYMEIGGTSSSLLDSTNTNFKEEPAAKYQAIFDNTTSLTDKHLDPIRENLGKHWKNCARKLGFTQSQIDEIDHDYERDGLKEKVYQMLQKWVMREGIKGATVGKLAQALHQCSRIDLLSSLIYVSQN
In words: Western Blot detection of inhibition of RIPK1 phosphorylation in HT29 cells. It counts as cell-based. The settings on record: Z-VAD-FMK/TNF-α/AT-406 induction, 7 hours. How it is done: In this assay, Western blot was used to detect the effect of the test compound on intracellular RIPK1 and its phosphorylation during the process of inducing programmed necrosis of HT29 cells to verify the inhibitory effect of the compound on RIPK1 phosphorylation.
a) HT29 cells in good condition were collected, resuspended in McCoy's 5A complete medium and counted. The cells were seeded in a 12-well plate at a cell density of 1×10 6/1 mL/well, and placed in a 37° C. cell culture incubator overnight.
b) Z-VAD-FMK (at final concentration of 20 μM) was added to the above 12-well plate. After 30 minutes, the inducer (where the final concentration of TNF-α was 20 ng/mL, and the final concentration of AT-406 was 100 nM), and the test compound of different concentrations was then added, and incubated in a cell incubator at 37° C. for 7 hours.
c) Preparation of complete lysate: A tube of aliquoted RIPA lysate was thawed, and then phosphatase inhibitor and Roche protease inhibitor were added respectively (phosphatase inhibitor: RIPA=1:100; Roche protease inhibitor: RIPA=4:100); the mixture was placed on ice for later use; […]
g) The BCA kit was used for detection and the protein concentration was calculated; […]
7. […] The membrane was cut according to the molecular weight of the protein to be detected based on the marker band indication. […]

Turning to `O=C(C1CCN(c2cc(-c3cc(OCCCO)ccc3F)ccn2)CC1)N1N=CC[C@H]1c1cc(F)cc(F)c1` (racemic) [Example 40], the “effect on RIPK1 total protein” value is given as “no obvious inhibitory effect on RIPK1”; the “inhibition of RIPK1 phosphorylation (Western Blot, ratio to total RIPK1)” value was “directly inhibits the phosphorylation activity of RIPK1 and shows a dose-dependent relationship”.
